From ChEMBL document CHEMBL1125004, “Chemistry and pharmacology of the non-benzodiazepine anxiolytic enciprazine and related compounds” (1990) come the findings set out here.

Calls of active or inactive are those of the source. The rule behind the calls is not given here.

Experiment [1] concerns Mus musculus. Kind of experiment: Antiaggressive anxiolytic activity in the electroshock-induced fighting test in mice (po); Range (1 7.3-25.4). Type of experiment: functional.
The subject of experiment [2] is Mus musculus. Kind of experiment: Antiaggressive anxiolytic activity in the electroshock-induced fighting test in mice (po); Range (13.27-18.96). Type of experiment: functional.
Experiment [3] has as its system Mus musculus. In words: Antiaggressive anxiolytic activity in the electroshock-induced fighting test in mice (po); Range (9.4-17.88). Type of experiment: functional.
Experiment [4] relates to Mus musculus. In words: Antiaggressive anxiolytic activity in the electroshock-induced fighting test in mice (po); Range (11.7-20.3). Type of experiment: functional.
The species entered for experiment [5] is Mus musculus. Kind of experiment: Ataxic activity in mice by rotarod test; Range (355.1-460.2). The experiment is classed as functional.
Experiment [6] concerns Mus musculus. Kind of experiment: Antiaggressive anxiolytic activity in the electroshock-induced fighting test in mice (po); Range (7.3-11.9). The experiment is classed as functional.
The nature of experiment [7]: Ratio of ED50 (hexobarbital) to that of ED50 (fighting). The experiment is classed as functional.
Experiment [8] is described as follows: Ratio of ED50 (rotarod) to that of ED50 (fighting). Type of experiment: functional. For orientation: The rotarod test checks motor coordination on a turning rod.
Experiment [9] concerns Mus musculus. Kind of experiment: Effect on hexobarbital induced sleep was determined in hexobarbital potentiation test (po); Range (76.3-106.2). Type of experiment: functional.
For experiment [10], the species on record is Mus musculus. In words: Effect on hexobarbital induced sleep was determined in hexobarbital potentiation test; Range (1 19.4-168.3). The experiment is classed as functional.
The subject of experiment [11] is Mus musculus. In words: Antiaggressive anxiolytic activity in the electroshock-induced fighting test in mice (po); Range (0.69-2.88). The experiment is classed as functional.
The species named for experiment [12] is Mus musculus. In words: Ataxic activity in mice by rotarod test; Range (231.4-298.5). The experiment is classed as functional.
For experiment [13], the species on record is Mus musculus. In words: Effect on hexobarbital induced sleep was determined in hexobarbital potentiation test; Range (8.3-15.4). The experiment is classed as functional.
The species named for experiment [14] is Mus musculus. In words: Ataxic activity in mice by rotarod test; Range (1.1-5.3). Type of experiment: functional.
The test system of experiment [15] is Mus musculus. In words: Antiaggressive anxiolytic activity in the electroshock-induced fighting test in mice (po); Range (6.62-10.07). Type of experiment: functional.
The subject of experiment [16] is Mus musculus. Kind of experiment: Antiaggressive anxiolytic activity in the electroshock-induced fighting test in mice (po); Range (1.19-5.72). Type of experiment: functional.
Experiment [17] deals with Mus musculus. Kind of experiment: Antiaggressive anxiolytic activity in the electroshock-induced fighting test in mice (po); Range (8.3-16.1). The experiment is classed as functional.
The subject of experiment [18] is Rattus norvegicus. Kind of experiment: Effect on salivation after oral administration of 20 mg/kg in rat was determined; +' weak effect. More on the design: dose 20 mg/kg. The experiment is classed as functional, organism-based.
Experiment [19] deals with Rattus norvegicus. Kind of experiment: Effect on restlessness after oral administration of 20 mg/kg in rat was determined; +' weak effect. Type of experiment: functional, organism-based. Details: dose 20 mg/kg.
For experiment [20], the species on record is Mus musculus. Kind of experiment: animal or person.
For experiment [21], the system named is Rattus norvegicus. Kind of experiment: Effect on jumping after oral administration of 10 mg/kg in rat was determined; '-' No effect. The experiment is classed as functional, organism-based. More on the design: dose 10 mg/kg.
The species entered for experiment [22] is Mus musculus. Kind of experiment: animal or person. Particulars: po.
Experiment [23] relates to Rattus norvegicus. Kind of experiment: Effect on tremor after oral administration of 10 mg/kg in rat was determined; '-' No effect. More on the design: dose 10 mg/kg. The experiment is classed as functional, organism-based.
Experiment [24] concerns Rattus norvegicus. Kind of experiment: Effect on piloerection after oral administration of 10 mg/kg in rat was determined; '+' weak effect. Type of experiment: functional, organism-based. More on the design: dose 10 mg/kg.
The subject of experiment [25] is Rattus norvegicus. Kind of experiment: Effect on restlessness after oral administration of 10 mg/kg in rat was determined; '+' weak effect. The experiment is classed as functional, organism-based. Details: dose 10 mg/kg.
The subject of experiment [26] is Rattus norvegicus. Kind of experiment: Effect on tremor after oral administration of 20 mg/kg in rat was determined; +' weak effect. Details: dose 20 mg/kg. The experiment is classed as functional, organism-based.
The nature of experiment [27]: Ratio of ED50 (ethanol) to that of ED50 (fighting). Type of experiment: functional.
Experiment [28] is filed under the species Mus musculus. In words: animal or person. This is another data set of the same source.
Description: Ataxic activity in mice by rotarod test; Range (2.99-5.35)
Experiment [29] deals with Rattus norvegicus. In words: Effect on salivation after oral administration of 10 mg/kg in rat was determined; '-' No effect. The experiment is classed as functional, organism-based. More on the design: dose 10 mg/kg.
The subject of experiment [30] is Rattus norvegicus. In words: Effect on jumping after oral administration of 20 mg/kg in rat was determined; +' weak effect. The experiment is classed as functional, organism-based. Details: dose 20 mg/kg.
Experiment [31] concerns Rattus norvegicus. In words: Effect on diarrhea after oral administration of 20 mg/kg in rat was determined; '++' strong effect. The experiment is classed as functional, organism-based. Details: dose 20 mg/kg.
In experiment [32] the test system is Rattus norvegicus. In words: Effect on piloerection after oral administration of 20 mg/kg in rat was determined; '++' strong effect. Details: dose 20 mg/kg. The experiment is classed as functional, organism-based.
The species entered for experiment [33] is Mus musculus. In words: animal or person. The source holds these as a separate data set.
Description: Effect on alcohol induced sleep was determined in ethanol potentiation test; Range (0.41-1.79)
The test system of experiment [34] is Rattus norvegicus. In words: Effect on diarrhea after oral administration of 10 mg/kg in rat was determined; '+' weak effect. More on the design: dose 10 mg/kg. The experiment is classed as functional, organism-based.
The test system of experiment [35] is Mus musculus. In words: Antiaggressive anxiolytic activity in the electroshock-induced fighting test in mice (po); Range (3.1-7.7). Type of experiment: functional.
Experiment [36] deals with Rattus norvegicus. In words: Antiaggressive anxiolytic activity in the hexagonal maze test in rat after po administration of 2.6 mg/kg. The experiment is classed as functional.
The species named for experiment [37] is Mus musculus. Kind of experiment: Ataxic activity in mice by rotarod test; Range (87.7-114.6). The experiment is classed as functional.
Experiment [38] deals with Mus musculus. In words: Antiaggressive anxiolytic activity in the electroshock-induced fighting test in mice (po); Range (1.46-5.72). The experiment is classed as functional.
The species entered for experiment [39] is Mus musculus. In words: Effect on hexobarbital induced sleep was determined in hexobarbital potentiation test; Range (181.4-219.9). Type of experiment: functional.
Experiment [40] deals with Monkey. In words: Tested for ability to maintain self-administration after administration of 0.3 mg/kg in monkey 2037 (60.1+/-5.3). Type of experiment: functional, Cercopithecidae.
For experiment [41], the system named is Monkey. In words: Tested for ability to maintain self-administration after administration of 0.3 mg/kg in monkey 3017 (76.6+/-15.9). Type of experiment: functional, Cercopithecidae.
In experiment [42] the test system is Monkey. In words: Tested for ability to maintain self-administration after administration of 0.1 mg/kg in monkey 9083 (59.8+/-15.8). Type of experiment: functional, Cercopithecidae.
Experiment [43] relates to Monkey. Kind of experiment: Tested for ability to maintain self-administration after administration of 0.3 mg/kg in monkey 3038 (53.9+/-9.3). The experiment is classed as functional, Cercopithecidae.
The subject of experiment [44] is Monkey. In words: Tested for ability to maintain self-administration after administration of 0.3 mg/kg in monkey 2036 (44.9 +/-5.6). Type of experiment: functional, Cercopithecidae.
Experiment [45] relates to Monkey. Kind of experiment: Tested for ability to maintain self-administration after administration of 0.3 mg/kg in monkey 9079 (56.5+/-18.0). The experiment is classed as functional, Cercopithecidae.

By ED50 is commonly meant the midpoint of the dose-response relation. Consider `COc1cc(OCC(O)CN2CCN(c3ccccc3C(F)(F)F)CC2)cc(OC)c1OC.Cl` (stereo not drawn), for which, in the experiment on Mus musculus [1], it took a dose of 21 mg/kg to reach the 50% effect level (ED50).
Consider `COc1ccccc1N1CCN(CC(COc2cc(OC)c(OC)c(OC)c2)OC(=O)c2cc(OC)c(OC)c(OC)c2)CC1.Cl` (stereo not drawn), for which the 50% effect level in the experiment on Mus musculus [2] (ED50) was put at a dose of 16 mg/kg.
On to `COc1ccccc1N1CCN(CC(COc2cc(OC)c(OC)c(OC)c2)OC(=O)c2cccnc2)CC1.Cl` (stereo not drawn), for which, in the experiment with Mus musculus [3], the ED50 stood at 14 mg/kg.
In turn, `COc1cc(OCC(O)CN2CCN(c3ccccc3Cl)CC2)cc(OC)c1OC.Cl` (stereo not drawn) displayed a 50% effective dose (ED50) in the experiment with Mus musculus [4] of 16 mg/kg.
As to `COc1cc(OCC(O)CN2CCN(c3cccc(C(F)(F)F)c3)CC2)cc(OC)c1OC.Cl` (stereo not drawn), the ED50 in the experiment listed under Mus musculus [5] is 400 mg/kg; in the experiment with Mus musculus [6], 9 mg/kg; in the experiment with Mus musculus [9], 90 mg/kg. In addition, the Therapeutic index in [7] was 10; in experiment [8], 44.
In the case of `COc1cc(OCC(O)CN2CCN(c3ccccc3N)CC2)cc(OC)c1OC.Cl` (stereo not drawn), the Therapeutic index in experiment [7] was determined as 103; in experiment [8], 185. The ED50 in the experiment filed under Mus musculus [10] is 145 mg/kg; in the experiment with Mus musculus [11], 1.4 mg/kg; in the experiment listed under Mus musculus [12], 260 mg/kg.
For the molecule `O=C1CN=C(c2ccccc2)c2cc(Cl)ccc2N1CC1CC1` [PRAZEPAM], the figures for the ED50 in the experiment listed under Mus musculus [13], in the experiment listed under Mus musculus [14] and in the experiment on Mus musculus [15] were 11.5 mg/kg, 3.1 mg/kg and 8 mg/kg, respectively. Besides, the Therapeutic index in [7] turned out to be 1.4; in experiment [8] it was 0.4.
As for `COc1cc(OCC(O)CN2CCN(c3ccccc3OC(C)=O)CC2)cc(OC)c1OC.Cl` (stereo not drawn), the ED50 in the experiment with Mus musculus [16] worked out at 3.3 mg/kg.
`COc1cc(OCC(O)CN2CCN(c3cccc(C)c3)CC2)cc(OC)c1OC.Cl` (stereo not drawn) had a 50% effective dose (ED50) in the experiment on Mus musculus [17] of 12 mg/kg.
With `CN1C(=O)CN=C(c2ccccc2)c2cc(Cl)ccc21` [DIAZEPAM], the Effect result in the experiment with Rattus norvegicus [18], with Rattus norvegicus [19], with Rattus norvegicus [24], with Rattus norvegicus [25], with Rattus norvegicus [26] and in the experiment with Rattus norvegicus [30] was “Partially active” in each case. The Effect result in the experiment with Rattus norvegicus [34] was “Partially active”. The ED50 in the experiment filed under Mus musculus [20] came to 3 mg/kg; in the experiment listed under Mus musculus [22] it was 1.4 mg/kg; in the experiment listed under Mus musculus [28], 4 mg/kg; in the experiment filed under Mus musculus [33] it was 0.85 mg/kg. Further, the Effect entry with Rattus norvegicus [21], with Rattus norvegicus [23] and with Rattus norvegicus [29] was “inactive” throughout. For the same molecule, the Therapeutic index in experiment [7] turned out to be 2.1; in [27] it was 0.6; in experiment [8] it was 2.9. The Effect entry in the experiment with Rattus norvegicus [31] and with Rattus norvegicus [32] was “Active” in each case.
`COc1cccc(N2CCN(CC(O)COc3cc(OC)c(OC)c(OC)c3)CC2)c1.Cl` (stereo not drawn) gave an ED50 in the experiment on Mus musculus [35] of 5.5 mg/kg.
The molecule `COc1cc(OCC(O)CN2CCN(c3ccccc3NC(C)=O)CC2)cc(OC)c1OC` (stereo not drawn) had a Prolongation with Rattus norvegicus [36] of 50%. Also, the ED50 came out at 100 mg/kg in the experiment filed under Mus musculus [37], 3.3 mg/kg with Mus musculus [38] and 200 mg/kg in the experiment listed under Mus musculus [39]. The Therapeutic index in [7] was found to be 61; in experiment [8] it was 30.
On to `CCCC(C)C1(CC)C(=O)NC(=O)NC1=O` (stereo not drawn) [PENTOBARBITAL], for which the Effect in the experiment on Monkey [40] is on record as 60.1; in the experiment on Monkey [41], 76.6; in the experiment on Monkey [42], 59.8; in the experiment on Monkey [43], 53.9; in the experiment with Monkey [44], 44.9; with Monkey [45], 56.5.
